Assays:
[1] = test system: human parechovirus 1 (HPEV1); type: cell-based; conditions: A549 cells, 5 μM, 6 h
[2] = test system: Coxsackie virus A9 (CVA9); test: CVA9 infection of A549 cells, cell viability (CTG assay / crystal violet); type: cell-based, Griggs strain; conditions: 18 h post infection
Description: (§1) FIG. 1. […] A549 cells were treated for 1 h with different concentrations of vemurafenib before Echovirus 1 (EV1), Coxsackie virus B3 (CVB3) or Coxsackie virus A9 (CVA9) infection, and vemurafenib was present after addition of viruses. Further, non-infected control cells were included. After 18 h post infection, the cell viability was determined by cell viability Glo-titer assay according to the instructions by the manufacturer (CTG assay, which measures cellular ATP levels, Promega; left figure) or crystal violet staining as described before (right figure; Martikainen et al., 2015). Values are means±SD.
(§2) Adenocarcinoma human alveolar basal epithelial (A549, ATCC) cells were cultured in Dulbecco's modified eagle medium (DMEM; Gibco) supplemented with 10% fetal bovine serum (FBS; Gibco), 1% Glutamax (Gibco) and 1% penicillin and streptomycin antibiotics (Gibco) for 24 h. […] In addition, non-infected control cells were included. After 18 h post infection (p.i.), the cell viability was determined by cell titer-Glo assay according to the instructions by the manufacturer (CTG assay, which measures cellular ATP levels, Promega; left figure) or crystal violet staining as described before (right figure; Martikainen et al. 2015). Values are means±SD.

[3] = target: viral protease 3C (Coxsackievirus B3, UniProt P03313); test: Viral protease 3C action on G3BP1 in Hela cell homogenate, western blotting; type: biochemical; conditions: 5, 10 or 20 μM, RT for 18 h
Sequence of viral protease 3C (P03313 1541-1723): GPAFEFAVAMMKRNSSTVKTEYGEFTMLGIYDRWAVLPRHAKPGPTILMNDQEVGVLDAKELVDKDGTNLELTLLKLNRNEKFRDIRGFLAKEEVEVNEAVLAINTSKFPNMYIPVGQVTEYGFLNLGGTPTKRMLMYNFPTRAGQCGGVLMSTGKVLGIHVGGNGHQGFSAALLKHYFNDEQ
Description: (§3) FIG. 18. […] The results were detected by western blotting and known cellular targets for 2A and 3C, poly A binding protein (PABP) and stress granule assembly factor 1 (G3BP1) respectively, were immunolabeled. The results are representative of two separate experiments.
(§4) The reaction was carried out in buffer containing 20 mM HEPES (pH 7.4), 0.12 M KCH3COO, 4 mM Mg(CH3COO)2 and 5 mM DTT with or without vemurafenib (5, 10 or 20 μM) being present. The reactions were carried out at RT for 18 h, after which they were terminated by adding Laemmli sample buffer and heating at 100° C. for 9 min. The samples were run in 4-20% Miniprotean TGX stain free gel (Biorad). The gel was UV-activated for 5 min with Chemidoc MP (Biorad) to reveal the total protein amount, after which the proteins were transferred to PVDF membrane (Immobilon-P, Merck Millipore). Next, the blot was blocked o/n with 5% BSA in 0.05% tween in TBS. Poly A binding protein (PABP) was detected using 1:100 dilution of mouse anti-PABP (Santa Cruz). Stress granule assembly factor 1 G3BP1 was detected using 1:1000 dilution of mouse anti-G3BP1 (Santa Cruz).

[4] = test system: CV-B4 E2; test: CVB4 infection in mice, infectious viral titer in heart and pancreas; type: in vivo, Hsd:ICR(CD-1) female mice; conditions: 10 mg/kg intraperitoneally once a day for 5 days, sacrificed on day 6
[5] = target: 3D polymerase of CVB3 (Coxsackievirus B3, UniProt P03313); test: RNA elongation assay with viral 3D polymerase; type: biochemical; conditions: various inhibitor concentrations, RT
Sequence of 3D polymerase of CVB3 (P03313 1724-2185): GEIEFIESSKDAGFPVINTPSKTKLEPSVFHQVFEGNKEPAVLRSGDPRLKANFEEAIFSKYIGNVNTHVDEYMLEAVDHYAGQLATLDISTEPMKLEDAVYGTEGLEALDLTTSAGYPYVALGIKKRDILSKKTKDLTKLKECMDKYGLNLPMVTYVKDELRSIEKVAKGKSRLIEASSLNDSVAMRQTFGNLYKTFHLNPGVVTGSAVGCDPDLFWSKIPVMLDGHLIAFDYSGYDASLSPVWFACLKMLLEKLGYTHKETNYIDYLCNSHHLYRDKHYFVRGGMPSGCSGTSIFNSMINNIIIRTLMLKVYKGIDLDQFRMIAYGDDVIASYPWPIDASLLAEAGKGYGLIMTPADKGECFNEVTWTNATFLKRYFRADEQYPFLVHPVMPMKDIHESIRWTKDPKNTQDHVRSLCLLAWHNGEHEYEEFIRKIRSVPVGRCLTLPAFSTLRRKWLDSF
Description: FIG. 19. […] An RNA elongation assay was used to study the effect of vemurafenib on viral 3D polymerase. […] At 15 min, GTP and ATP were added along with RNA2 (SEQ ID NO:2) allowing 3D+RNA1 complexes to incorporate ATP and GTP (forming +2 product) as well as initiate and incorporate GTP and RNA2 (forming +1 product). After 10 min, each reaction was “chased” to fully elongated product by adding the remaining NTPs.
An RNA elongation assay was used to study the effect of vemurafenib on viral 3D polymerase. […] At 15 min, GTP and ATP were added along with RNA2 (SEQ ID NO: 2) allowing 3D+RNA1 complexes to incorporate ATP and GTP (forming +2 product) as well as initiate and incorporate GTP and RNA2 (forming +1 product). After 10 min, each reaction was “chased” to fully elongated product by adding the remaining NTPs.

[6] = test system: CVB4 E2 diabetogenic strain; test: CVB4 infection of Min-6 pancreatic beta cells, crystal violet viability; type: cell-based; conditions: mouse pancreatic beta cell line Min-6, 0.25-7.5 μM, MOI of 1, crystal violet
[7] = test system: adenovirus 5; test: Adenovirus 5 GFP transduction of A549 cells; conditions: 5 μM, 17 h
[8] = test system: EV1-infected A549 cells; type: cell-based, human
[9] = test system: influenza A(H1N1)pdm09; conditions: reported by McKimm-Breschkin et al.; cited from earlier work
[10] = test system: human rhinovirus B14 (HRVB14); test: HRVB14 replication in Hela cells by dsRNA (J2) labeling; conditions: 5 μM, 6 h at +34° C.
[11] = test system: Echovirus 1 (EV1); type: cell-based, Farouk strain
[12] = test system: EV1; test: Time of addition assay, EV1 infection of A549 cells, VP1 labeling; type: cell-based; conditions: EV1, 5 μM, infection followed until 6 h p.i.
[13] = test system: Coxsackie virus B3 (CVB3); test: CVB3 infection of A549 cells, cell viability (CTG assay / crystal violet); type: cell-based, Nancy strain; conditions: 18 h post infection
Description: as §1, §2

[14] = test system: vesicular stomatitis virus (VSV); type: cell-based
[15] = test system: EV1; test: EV1 replication in A549 cells by dsRNA (J2) labeling; type: cell-based; conditions: 5 μM, 3, 4 or 6 h p.i.
[16] = test system: EV1 particle; test: Real-time spectroscopic assay of EV1 particle opening (Sybr green II); conditions: 5 μM, 3 h at +37° C.
[17] = test system: CVB4; test: Persistent CVB4 infection of Panc-1 cells, viral titers and viral RNA; type: cell-based; conditions: 7.5 μM each 2 to 3 days
[18] = target: viral protease 2A (Coxsackievirus B3, UniProt P03313); test: Viral protease 2A action on PABP in Hela cell homogenate, western blotting; type: biochemical; conditions: 5, 10 or 20 μM, RT for 18 h
Sequence of viral protease 2A (P03313 852-1001): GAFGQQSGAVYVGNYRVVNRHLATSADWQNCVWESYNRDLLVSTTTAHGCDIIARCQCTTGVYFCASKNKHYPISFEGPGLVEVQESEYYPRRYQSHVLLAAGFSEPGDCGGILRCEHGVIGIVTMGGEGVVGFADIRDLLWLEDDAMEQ
Description: as §3, §4

[19] = test system: Poliovirus 3; type: cell-based, polio-3 (vaccine strain); conditions: A549 cells, 2 days of infection, Cell Titer Glo
[20] = test system: respiratory syncytial virus (RSV); type: cell-based; conditions: Hela cells, 5 or 10 μM, 20 h
[21] = test system: HPEV1 IRES; type: cell-based, HPEV1 strain 22 Harris; conditions: Hela cells, 5 μM, 24 h
[22] = test system: semliki forest virus (SFV); type: cell-based; conditions: Hela cells, 5 or 10 μM, 6 h
[23] = test system: Coxsackie virus B (CVB) serotypes (1-6); test: CVB serotypes 1-6 infection of A549 cells, crystal violet viability; type: cell-based; conditions: 18 h of infection, dose dependent
Description: FIG. 2. […] Different concentrations of vemurafenib were tested against different Coxsackie virus B (CVB) serotypes (1-6) by treating A549 cells with the drug for 1 h and then infecting the cells with the viruses. Cell viability was determined after 18 h of infection using crystal violet staining. The results were normalized to control sample with no virus infection and 0 μM concentration of vemurafenib (CTRL). The values are means±SD.
Finally, the cell viability was determined using crystal violet staining. The results were normalized to control sample with no virus infection and 0 μM concentration of vemurafenib (CTRL). The values are means±SD.

[24] = test system: EV1; test: Uncoating of radioactively labeled EV1 in endosomes of A549 cells, sucrose gradients; conditions: 5 μM, 4 h p.i.
[25] = test system: EV1 RNA; test: Transfection of EV1 genomic RNA into A549 cells, VP1 labeling; conditions: 5 μM, 6 h
[26] = test system: EV1 IRES; type: cell-based, EV1 Farouk strain; conditions: Hela cells, 5 μM, 24 h
[27] = 1 h pre-treatment, dose dependent

SMILES: CCCS(=O)(=O)Nc1ccc(F)c(C(=O)c2c[nH]c3ncc(-c4ccc(Cl)cc4)cc23)c1F [vemurafenib, N-(3-(5-(4-chlorophenyl)-1H-pyrrolo[2,3-b]pyridine-3-carbonyl)-2,4-difluorophenyl)propane-1-sulfonamide]
- effect on HPEV1 infection (VP1 positive cells) [1]: not effective
- effect on CVA9 infection (cell viability) [2, 27]: rescued the cells
- concentration of maximal inhibition of CVA9 infection [2]: 5 µM
- effect on viral protease 3C action (G3BP1) [3]: does not have direct effects
- levels of infectious CVB4 in heart tissue [4]: significantly decreased
- levels of infectious CVB4 in pancreas tissue [4]: significantly decreased
- effect on CVB3 3D polymerase action [5]: does not prevent its action, nor binding or elongation of the nascent RNA chain
- effect on CVB4 infection of Min-6 cells (cell viability) [6]: efficiently rescued
- effect on adenovirus 5 transduction (GFP positive cells) [7]: not effective
- effects on BRAF in the transcriptomics study [8]: no effects
- effect on EV1-induced up- or downregulation of mRNAs ([8]; A549 cells, 6 h pi, Illumina Human HT-12 v4): attenuated almost all the effects of the virus
- efficacy against influenza A(H1N1)pdm09 infection compared with oseltamivir [9]: greater efficacy than oseltamivir
- effect on HRVB14 replication (dsRNA J2 intensity) [10]: decreases the replication
- effect on EV1 infection (cell viability) [11]: prevents the infection
- time of administration at which efficacy is lost [12]: ≥ 3 h p.i.
- effect on CVB3 infection (cell viability) [13, 27]: rescued the cells
- concentration of maximal inhibition of CVB3 infection [13]: 5 µM
- effect on VSV infection (GFP infection percentage) [14]: not effective
- effect on EV1 replication (replication intermediate, dsRNA) [15]: prevented
- direct virucidal effect on EV1 particle (genome release) [16]: does not have direct virucidal effects
- presence of viral RNA in persistently infected Panc-1 cells ([17]; qPCR at day 7, 9, 14 and 21): totally eradicated
- level of infectious viral particles (capsid) in persistently infected Panc-1 cells ([17]; supernatant titers on HEp-2 cells): totally eradicated
- effect on viral protease 2A action (PABP) [18]: does not have direct effects
- effect on polio-3 infection (cell viability) [19]: efficiently rescued
- effect on RSV infection (GFP infection percentage) [20]: not effective
- effect on HPEV1 IRES-based translation (mCherry fluorescence) [21]: does not have direct effects
- effect on SFV infection (GFP infection percentage) [22]: not effective
- effect on infection by CVB serotypes 1 to 6 (cell viability) [23]: inhibited
- effect on uncoating of EV1 inside endosomes [24]: does not affect the uncoating
- effect on infection after transfection of genomic RNA of EV1 [25]: totally prevented infection
- effect on EV1 IRES-based translation (mCherry fluorescence) [26]: does not have direct effects

Source: patent US12599591B2, “Vemurafenib and salts thereof for use in the treatment of enteroviral infections” (Jyväskylän yliopisto, priority 2018, dated 2026)
